How the values were obtained:
pyruvate kinase = biological target: T1, pyruvate kinase (Oryctolagus cuniculus, UniProt P11974); assay: ADP to ATP conversion by pyruvate kinase (ADP detection assay); type: biochemical, rabbit
T1 construct: Pyruvate kinase from rabbit muscle (Sigma Catalog number P9136); purchased Sigma P9136; host or cells: rabbit muscle
Method: Pyruvate kinase from rabbit muscle (Sigma Catalog number P9136), myokinase from chicken muscle (Sigma Catalog number M5520), myokinase from rabbit muscle (Sigma Catalog number M3003), creatine phosphokinase from bovine heart (Sigma Catalog number C7886), creatine phosphokinase from rabbit brain (Sigma Catalog number C6638), and creatine phosphokinase from rabbit muscle (Sigma Catalog number C3755) were obtained from Sigma.
80 μL of Reagent 2 (800 μM phosphoenolpyruvate and 800 mU pyruvate kinase in 80 μL Kinase-Glo® Max (Promega Corp.)) were added simultaneously to the kinase or ATPase reaction and incubated for 30-60 minutes at room temperature. The data were collected using a plate reading luminometer (GloMax® 96 Microplate Luminometer).
When the assay was performed in 3 steps, the following modification was introduced. After the ATP depletion step, 20 μL of pyruvate kinase (PK) reagent (40 mM Tris pH 7.0, 335 mM KCl, 500 μM calmidazolium, 500 μM phosphoenolpyruvate, 15 mM EDTA, 0.3 mg/mL BSA and 300-600 mU pyruvate kinase) was added, the reaction incubated for 5-10 minutes, and 100 μL Kinase-Glo® Max (Promega Corp.) was added to detect the ATP produced. After a 10 minute incubation, the plate was read on a plate reading luminometer (GloMax 96 Microplate Luminometer; Promega Corp.).

adenylate cyclase (AC) = assay: Adenylate cyclase assay and inhibition; type: biochemical; conditions: for use as inhibitors of adenylate cyclase: calmodulin antagonists, when converting ADP to ATP, FIG. 5
Method: Activity of various adenylyl cyclases (ACs) was measured at 30° C. for 30 minutes in the presence of 60 mM Tris pH 7.5, 10 mM MgCl2, 40 nM calmodulin and variable ATP concentrations. Except for those experiments related to AC titration, 100 ng of the AC was used. When used, the calmodulin antagonists were prepared according to the manufacturer's recommendation and were added directly to the AC reaction when direct inhibition was assessed or to the reaction converting ADP to ATP to assess AC inhibition during ATP formation.

T1 sequence (P11974 whole entry): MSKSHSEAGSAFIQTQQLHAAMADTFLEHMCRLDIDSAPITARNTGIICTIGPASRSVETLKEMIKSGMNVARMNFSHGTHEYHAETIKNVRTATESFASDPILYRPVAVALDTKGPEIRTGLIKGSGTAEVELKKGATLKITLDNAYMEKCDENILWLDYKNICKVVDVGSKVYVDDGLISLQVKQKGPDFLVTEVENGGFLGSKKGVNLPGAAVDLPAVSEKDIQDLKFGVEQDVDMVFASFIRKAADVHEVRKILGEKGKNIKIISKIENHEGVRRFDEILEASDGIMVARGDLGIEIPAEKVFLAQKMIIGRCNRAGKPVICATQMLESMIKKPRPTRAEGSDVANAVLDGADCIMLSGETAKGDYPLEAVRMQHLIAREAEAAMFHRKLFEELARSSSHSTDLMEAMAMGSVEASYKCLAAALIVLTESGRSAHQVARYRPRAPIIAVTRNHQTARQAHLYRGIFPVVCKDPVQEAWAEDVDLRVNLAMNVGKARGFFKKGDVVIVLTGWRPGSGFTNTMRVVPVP

How did the “interference with pyruvate kinase conversion of ADP to ATP” value (pyruvate kinase; even at high calmidozolium concentrations, FIG. 6) turn out when `Clc1ccc(C(c2ccc(Cl)cc2)n2cc[n+](CC(OCc3ccc(Cl)cc3Cl)c3ccc(Cl)cc3Cl)c2)cc1` (centres unmarked) [calmidazolium] was run?
The value was “without any significant interference”.

And the “inhibition of AC” value (adenylate cyclase (AC); FIG. 6)?
The value was “inhibited”.

What about the “use as inhibitors of adenylate cyclase” value (adenylate cyclase (AC)) of the same molecule?
Its value is “may be used as inhibitors of adenylate cyclase”.

`CN[C@@H]1C[C@H]2O[C@@](C)([C@@H]1OC)n1c3ccccc3c3c4c(c5c6ccccc6n2c5c31)C(=O)NC4` [staurosporine] was tested. Which “interference with the pyruvate kinase reaction” value (pyruvate kinase; inhibitor used to stop or tested in PKA kinase reaction, FIG. 13) did it give?
Its value is “did not interfere significantly”.

For `CN1CCN(CCCN2c3ccccc3Sc3ccc(C(F)(F)F)cc32)CC1` [trifluoroperazine], which “use as inhibitors of adenylate cyclase” value (adenylate cyclase (AC)) is on record?
The value was “may be used as inhibitors of adenylate cyclase”.

— patent US8802411B2, “ADP detection based luminescent phosphotransferase or ATP hydrolase assay” (Promega Corporation, priority 2008, dated 2014)
